These results are taken from patent US4526888A, “Nephrotoxicity inhibitors for aminoglycoside antibiotics” (Bristol-Myers Company, priority 1983, dated 1985).

Several values for one entry are separate records, joined by “and”; a condition that tells them apart may be missing. Equal entries are not always repeated. Where two headings read alike, the source gives them in different places. A value given as a limit tells only on which side of the number the result lay.

For series [1], the system named is rats. To be noted: rat, in vivo.
From the text: (§1) A fourteen (14) day subacute nephrotoxicity model in rats was utilized to test the in vivo efficacy of aminoglycoside-transport inhibitor combinations. […] Though blood urea nitrogen (BUN) was monitored as a clinical parameter of renal function, the primary evaluation of nephrotoxicity in this model involves histopathologic examination of renal tissue, which is a more accurate and sensitive method for assessing nephrotoxicity [Hottendorf et al., Antimicrob.
(§2) Male Sprague-Dawley rats [Charles River Breeding Laboratories, Inc., (CRL: COBS CD (SD) BR)] approximately 6 weeks old and weighing 140-160 gms upon arrival were used. They were conditioned for at least 5 days prior to the start of the study. Only animals found to be clinically healthy were selected. Rats were identified individually by number on the tail with black marking pens. During the study the rats were housed individually in cages of the appropriate size and type in a temperature-controlled room. Rodent Laboratory Chow (pellet, Purina Ralston Company) and water was offered ad libitum.
(§3) The aminoglycoside and aminoglycoside-inhibitor mixtures were administered subcutaneously twice daily for 14 days.
(§4) All rats were euthanized by an overdose of sodium pentobarbital on study Day 15.
(§5) The kidneys were removed and examined grossly. A longitudinal section of the left kidney and a cross section of the right kidney from each rat were preserved in 10% neutral buffered Formalin for histopathological evaluation. Tissue sections (6 μm each) were stained with hematoxylin and eosin, and the resulting tissue slides were randomized, masked, and examined by a single pathologist without knowledge of the animal's treatment.
(§6) Lesions encountered in the renal cortex included tubular vacuolar or granular degeneration, peritubular inflammation, tubular necrosis, tubular dilatation, tubular basophilia, and interstitial fibrosis. The extent and distribution of each of these lesions in both kidneys of every rat were scored as follows: 0, absence of lesion; 1, lesion represented in fewer than 10% of the nephrons; 2, lesion represented in 10 to 50% of the nephrons; 3, lesion represented in 50 to 90% of the nephrons; and 4, lesion represented in more than 90% of the nephrons. Since these lesions are all interrelated and represent various stages of proximal tubular damage, the lesion scores were summed to produce a single nephrotoxicity response for each animal, with a possible severity range of 0 to 24.
(§7) Nephrotoxicity was monitored by blood urea nitrogen (BUN) analysis and histopathologic examination of renal tissue.
(§8) Aminoglycosides and aminoglycoside-inhibitor mixtures were administered subcutaneously twice daily for fourteen days.
(§9) All rats were euthanized by an overdose of sodium pentobarbital on study Day 15. The kidneys were removed, examined grossly and placed in 10% neutral buffered formalin for subsequent histopathologic evaluation.
The subject of series [2] is rats. Description: Fourteen day subacute nephrotoxicity model in rats, histopathologic examination of renal tissue. As to conditions: for in vivo nephroprotective activity (in words): summary of Table III.
From the text: as §1, §2, §3, §4, §5, §6, §7, §8, §9
For series [3], the system named is renal brush border membranes of proximal tubule cells. The experiment in a line: In vitro gentamicin transport inhibition, isolated renal brush border membrane vesicles. The series is classed as biochemical. As to conditions: 3H-gentamicin transport, rat renal brush border membrane vesicles, 30 second incubation; multiple of aminoglycoside molar concentration. The text has this: An in vitro screening program was established to study the selective inhibition of aminoglycoside transport across renal brush border membranes of proximal tubule cells. The screening tests employed isolated, purified brush border membrane as described by Kinsella et al., Biochem. Biophys. Acta., 552: 468-477 (1979) and Williams et al., Tox. Applied Pharmacol., 61: 243-251 (1981), comprising isolation and purification of rat renal cortical membranes via differential centrifugation, cationic precipitation and discontinuous sucrose gradient techniques. […] The transport was quantified by liquid scintillation techniques as described by Kinsella et al., J. Pharmacol. Exp. Ther., 209: 443-450 (1979). Gentamicin transport was characterized, FIG. 1, as to time and concentration dependency, and as to specificity. Gentamicin transport was then measured at a fixed concentration of gentamicin (0.5 mM) in the presence of prospective inhibitors at 5X molar concentration. […] The reaction media was then vacuum filtered on 0.3 micron Millipore filters. The filters were washed twice with 2 ml of the buffer and removed and counted using liquid scintillation spectroscopy techniques. […] The inhibitors were solubilized in the above-described buffer.

Where [4] appears, read: multiple of AG dose: Molar 0.1 (Mg 0.7 Lysine20, 2 Asparagine90).
[5] abbreviates: multiple of AG dose: Molar 0.3 (Mg 15 Lysine10, 10 Aspartic acid90, 6 Asparagine90).
The mark [6] stands for this setting: multiple of AG dose: Molar 1 (Mg 15 Glutamic acid60, 20 Asparagine90).

For the molecule `NCC[C@H](O)C(=O)N[C@@H]1C[C@H](N)[C@@H](O[C@H]2O[C@H](CN)[C@@H](O)[C@H](O)[C@H]2O)[C@H](O)[C@H]1O[C@H]1O[C@H](CO)[C@@H](O)[C@H](N)[C@H]1O.O=S(=O)(O)O.O=S(=O)(O)O` [AMIKACIN, amikacin sulfate], in the series on rats [1], the “nephrotoxicity in this test (conclusion in words)” value was “demonstrates the nephrotoxicity of amikacin”.

Turning to `O=S(=O)([O-])CO.[Na+]` [Sodium formaldehyde bisulfite], the “Nephroprotective Activity” value with rats [2] (multiple of AG dose: Molar 136, Mg 40) is reported as “+ (less than 50% reduction)”. In addition, the “I50 (molar multiples producing 50% transport inhibition)” value in series [3] was found to be 10 X.

For the molecule `NCCCNCCCCNCCCN` [Spermine], the “I50 (molar multiples producing 50% transport inhibition)” value in series [3] is listed as 3 X.

Poly-l-asparagine90: the “Nephroprotective Activity” value with rats [2] (setting [4]) is “+ (less than 50% reduction)”; in the series with rats [2] (multiple of AG dose: Molar 0.15, Mg 3), “+ (less than 50% reduction)”; with rats [2] (setting [5]), “+ (less than 50% reduction)”; in the series on rats [2] (multiple of AG dose: Molar 0.5, Mg 10) it was “+++ (reduction 100%)”; in the series on rats [2] (setting [6]), “+++ (reduction 100%)”. Besides, the “in vivo nephroprotective activity (in words)” value in the series with rats [2] is listed as “greatest degree of in vivo nephroprotective activity”. The “I50 (molar multiples producing 50% transport inhibition)” value in series [3] worked out at 0.1 X.

Regarding Poly-l-aspartic Acid90, the “Nephroprotective Activity” value in the series with rats [2] (setting [5]) was “+++ (reduction 100%)”. In addition, the “in vivo nephroprotective activity (in words)” value in the series on rats [2] is given as “greatest degree of in vivo nephroprotective activity”. In addition, the “I50 (molar multiples producing 50% transport inhibition)” value in series [3] is on record as less than 0.1 X.

Take Poly-l-glutamic Acid60: in the series with rats [2] (setting [6]), the “Nephroprotective Activity” value is given as 0. In addition, the “I50 (molar multiples producing 50% transport inhibition)” value in series [3] is less than 0.1 X.

In the case of Poly-l-lysine10, in the series with rats [2] (setting [5]), the “Nephroprotective Activity” value is listed as 0. Moreover, the “I50 (molar multiples producing 50% transport inhibition)” value in series [3] is given as 1 X.

For the molecule Tetralysine [Lysine4], in the series on rats [2] (multiple of AG dose: Molar 16, Mg 25), the “Nephroprotective Activity” value is on record as 0. Moreover, the “I50 (molar multiples producing 50% transport inhibition)” value in series [3] came out at 10 X.

As to gentamicin sulfate [GENTM], the “Histopath. Score (TOTAL), group value below animal scores” value worked out at 4.2 in the series with rats [2] (Example II Group II, gentamicin 10 mg/kg sc twice daily 14 days) and 4.8 in the series with rats [2] (Example II Group III, gentamicin 20 mg/kg). The “Histopath. Score (TOTAL), individual animal” value in the series on rats [2] (Example II Group II, gentamicin 10 mg/kg sc twice daily 14 days, Day 15, range 0 to 24) is 1 and 5 and 6 and 4; in the series on rats [2] (Example II Group III, gentamicin 20 mg/kg sc twice daily 14 days), 4 and 3 and 5 and 8. For the same molecule, the “Histopath. Score (TOTAL), group value below rat scores” value with rats [2] (Example III Group II, gentamicin 20 mg/kg) was determined as 8.8. Also, the “Histopath. Score (TOTAL), individual rat” value in the series with rats [2] (Example III Group II, gentamicin 20 mg/kg sc twice daily fourteen days) was 8 and 9 and 10. Besides, the “nephrotoxicity in this test (conclusion in words)” value in the series on rats [2] (aminoglycoside alone groups) is on record as “demonstrates the nephrotoxicity of gentamicin”. Moreover, the “dose necessary to elicit a significant and reproducible nephrotoxic response” value with rats [2] (bid, 14 days, rats) was 20 mg/kg/day.

As for polylysine20, the “Nephroprotective Activity” value in the series on rats [2] (setting [4]) is recorded as “+ (less than 50% reduction)”. The “in vivo nephroprotective activity (in words)” value with rats [2] is listed as “showed any nephroprotective activity”. The “I50 (molar multiples producing 50% transport inhibition)” value in series [3] is given as 0.05 X.
